In PubChem BioAssay AID1259407 (Chemical Carcinogenesis Research Information System (CCRIS), 2018):
Active and inactive are the calls of the source. How the calls were made is not given here.

System: CCRIS mutagenicity, Ames/micronucleus/aberration tests
Assay: CCRIS mutagenicity studies
[1] = Test System: AMES SALMONELLA TYPHIMURIUM, Strain/Indicator: TA98, Metabolic Activation: NONE, Method: PREINCUBATION
[2] = Test System: AMES SALMONELLA TYPHIMURIUM, Strain/Indicator: TA100, Metabolic Activation: NONE, Method: PREINCUBATION
[3] = Test System: AMES SALMONELLA TYPHIMURIUM, Strain/Indicator: TA1535, Metabolic Activation: NONE, Method: PREINCUBATION
[4] = Test System: AMES SALMONELLA TYPHIMURIUM, Strain/Indicator: TA1537, Metabolic Activation: NONE, Method: PREINCUBATION

F[B-](F)(F)F
mutagenic call [1]: inactive; negative
mutagenic call (Test System: AMES SALMONELLA TYPHIMURIUM, Strain/Indicator: TA98, Metabolic Activation: RAT, LIVER, S-9, KC 500, Method: PREINCUBATION): inactive; negative
mutagenic call [2]: inactive; negative
mutagenic call (Test System: AMES SALMONELLA TYPHIMURIUM, Strain/Indicator: TA100, Metabolic Activation: RAT, LIVER, S-9, KC 500, Method: PREINCUBATION): inactive; negative
mutagenic call [3]: inactive; negative
mutagenic call (Test System: AMES SALMONELLA TYPHIMURIUM, Strain/Indicator: TA1535, Metabolic Activation: RAT, LIVER, S-9, KC 500, Method: PREINCUBATION): inactive; negative
mutagenic call [4]: inactive; negative
mutagenic call (Test System: AMES SALMONELLA TYPHIMURIUM, Strain/Indicator: TA1537, Metabolic Activation: RAT, LIVER, S-9, KC 500, Method: PREINCUBATION): inactive; negative
mutagenic call (Test System: AMES SALMONELLA TYPHIMURIUM, Strain/Indicator: TA1538, Metabolic Activation: NONE, Method: PREINCUBATION): inactive; negative
mutagenic call (Test System: AMES SALMONELLA TYPHIMURIUM, Strain/Indicator: TA1538, Metabolic Activation: RAT, LIVER, S-9, KC 500, Method: PREINCUBATION): inactive; negative
mutagenic call (Test System: E. COLI, Strain/Indicator: WP2 UVRA, Metabolic Activation: NONE, Method: PREINCUBATION): inactive; negative
mutagenic call (Test System: E. COLI, Strain/Indicator: WP2 UVRA, Metabolic Activation: RAT, LIVER, S-9, KC 500, Method: PREINCUBATION): inactive; negative

Cc1ccc2c([N+](=O)[O-])cc[n+]([O-])c2c1
mutagenic call (Test System: UDS RODENT PRIMARY CELLS, Strain/Indicator: THY INCORP (NON-S-PHASE), Metabolic Activation: NONE, Method: AUTORADIOGRAPHY): active; positive

COC(=O)c1ccccc1O
mutagenic call (Test System: AMES SALMONELLA TYPHIMURIUM, Strain/Indicator: TA98, Metabolic Activation: GUINEA PIG, LIVER, S-9, PCB, Method: PREINCUBATION): inactive; negative
mutagenic call (Test System: AMES SALMONELLA TYPHIMURIUM, Strain/Indicator: TA98, Metabolic Activation: HAMSTER, LIVER, S-9, AROCLOR 1254 (30%), Method: PREINCUBATION): inactive; negative
mutagenic call (Test System: AMES SALMONELLA TYPHIMURIUM, Strain/Indicator: TA98, Metabolic Activation: HAMSTER, LIVER, S-9, AROCLOR 1254 (50%), Method: PREINCUBATION): inactive; negative
mutagenic call (Test System: AMES SALMONELLA TYPHIMURIUM, Strain/Indicator: TA98, Metabolic Activation: HAMSTER, LIVER, S-9, PCB, Method: PREINCUBATION): active; positive
mutagenic call (Test System: AMES SALMONELLA TYPHIMURIUM, Strain/Indicator: TA98, Metabolic Activation: MOUSE, LIVER, S-9, PCB, Method: PREINCUBATION): inactive; negative
mutagenic call [1]: inactive; negative
mutagenic call (Test System: AMES SALMONELLA TYPHIMURIUM, Strain/Indicator: TA98, Metabolic Activation: RAT, LIVER, S-9, AROCLOR 1254 (30%), Method: PREINCUBATION): inactive; negative
mutagenic call (Test System: AMES SALMONELLA TYPHIMURIUM, Strain/Indicator: TA98, Metabolic Activation: RAT, LIVER, S-9, AROCLOR 1254 (50%), Method: PREINCUBATION): inactive; negative
mutagenic call (Test System: AMES SALMONELLA TYPHIMURIUM, Strain/Indicator: TA98, Metabolic Activation: RAT, LIVER, S-9, PCB, Method: PREINCUBATION): inactive; negative
mutagenic call (Test System: AMES SALMONELLA TYPHIMURIUM, Strain/Indicator: TA100, Metabolic Activation: GUINEA PIG, LIVER, S-9, PCB, Method: PREINCUBATION): inactive; negative
mutagenic call (Test System: AMES SALMONELLA TYPHIMURIUM, Strain/Indicator: TA100, Metabolic Activation: HAMSTER, LIVER, S-9, AROCLOR 1254 (30%), Method: PREINCUBATION): inactive; negative
mutagenic call (Test System: AMES SALMONELLA TYPHIMURIUM, Strain/Indicator: TA100, Metabolic Activation: HAMSTER, LIVER, S-9, AROCLOR 1254 (50%), Method: PREINCUBATION): inactive; negative
mutagenic call (Test System: AMES SALMONELLA TYPHIMURIUM, Strain/Indicator: TA100, Metabolic Activation: HAMSTER, LIVER, S-9, PCB, Method: PREINCUBATION): active; positive
mutagenic call (Test System: AMES SALMONELLA TYPHIMURIUM, Strain/Indicator: TA100, Metabolic Activation: MOUSE, LIVER, S-9, PCB, Method: PREINCUBATION): inactive; negative
mutagenic call [2]: inactive; negative
mutagenic call (Test System: AMES SALMONELLA TYPHIMURIUM, Strain/Indicator: TA100, Metabolic Activation: RAT, LIVER, S-9, AROCLOR 1254 (30%), Method: PREINCUBATION): inactive; negative
mutagenic call (Test System: AMES SALMONELLA TYPHIMURIUM, Strain/Indicator: TA100, Metabolic Activation: RAT, LIVER, S-9, AROCLOR 1254 (50%), Method: PREINCUBATION): inactive; negative
mutagenic call (Test System: AMES SALMONELLA TYPHIMURIUM, Strain/Indicator: TA100, Metabolic Activation: RAT, LIVER, S-9, PCB, Method: PREINCUBATION): inactive; negative
mutagenic call (Test System: AMES SALMONELLA TYPHIMURIUM, Strain/Indicator: TA1535, Metabolic Activation: HAMSTER, LIVER, S-9, AROCLOR 1254 (30%), Method: PREINCUBATION): inactive; negative
mutagenic call (Test System: AMES SALMONELLA TYPHIMURIUM, Strain/Indicator: TA1535, Metabolic Activation: HAMSTER, LIVER, S-9, AROCLOR 1254 (50%), Method: PREINCUBATION): inactive; negative
mutagenic call [3]: inactive; negative
mutagenic call (Test System: AMES SALMONELLA TYPHIMURIUM, Strain/Indicator: TA1535, Metabolic Activation: RAT, LIVER, S-9, AROCLOR 1254 (30%), Method: PREINCUBATION): inactive; negative
mutagenic call (Test System: AMES SALMONELLA TYPHIMURIUM, Strain/Indicator: TA1535, Metabolic Activation: RAT, LIVER, S-9, AROCLOR 1254 (50%), Method: PREINCUBATION): inactive; negative
mutagenic call (Test System: AMES SALMONELLA TYPHIMURIUM, Strain/Indicator: TA1537, Metabolic Activation: HAMSTER, LIVER, S-9, AROCLOR 1254 (30%), Method: PREINCUBATION): inactive; negative
mutagenic call (Test System: AMES SALMONELLA TYPHIMURIUM, Strain/Indicator: TA1537, Metabolic Activation: HAMSTER, LIVER, S-9, AROCLOR 1254 (50%), Method: PREINCUBATION): inactive; negative
mutagenic call [4]: inactive; negative
mutagenic call (Test System: AMES SALMONELLA TYPHIMURIUM, Strain/Indicator: TA1537, Metabolic Activation: RAT, LIVER, S-9, AROCLOR 1254 (30%), Method: PREINCUBATION): inactive; negative
mutagenic call (Test System: AMES SALMONELLA TYPHIMURIUM, Strain/Indicator: TA1537, Metabolic Activation: RAT, LIVER, S-9, AROCLOR 1254 (50%), Method: PREINCUBATION): inactive; negative
